Measurements taken from patent publication US12635691B2, “Fipronil containing insecticide gels” (Henkel AG & Co. KGaA, priority 2022, dated 2026).
“Also recorded” adds a separate entry of the source.

Test: Migration of fipronil from the gel formula into the container, by container material
Assay type: physicochemical
Method: When the products are formulated in a gel medium, they are often packaged in the forms of capsules, syringes, or adhesive strips. The packaging materials frequently contain plastics. […] Such plastics may include, but are not limited to, polystyrene/butadiene blend, polyethylene (PE) thermoformed, or PET/PE copolymer […].
Fipronil has a solubility in water around 0.002 g/l (20° C.). At a level of […], fipronil is soluble in the water-based matrix because its solubility in water is 0.002 g/l (20° C., BASF SDS). However, although being soluble in the formula, fipronil tends to migrate, under room temperature conditions and in high temperatures (tested up to 54° C.), into the container (i.e., plastic packaging) depending on the material that the container is made of: • a. […] PET/PE thermoformed→Migration • c. Polyethylene thermoform→Migration • d. Polyethylene injected→No migration • e. Polystyrene→No migration • f. Polystyrene/Butadiene (4%)→migration

## N#Cc1nn(-c2c(Cl)cc(C(F)(F)F)cc2Cl)c(N)c1[S+]([O-])C(F)(F)F (stereo not drawn) [Fipronil, 1-[2,6-Cl2 4-CF3 phenyl] 3-CN 4-[SO—CF3] 5-NH2 pyrazole]
container: Glass (used as reference), room temperature and high temperatures (tested up to 54° C.)
  Migration of fipronil into the container: No migration, formula stable; also recorded: no fipronil migration
container: PET/PE thermoformed, room temperature and up to 54° C.
  Migration of fipronil into the container: Migration
container: Polyethylene injected, room temperature and up to 54° C.
  Migration of fipronil into the container: No migration
container: Polyethylene thermoform, room temperature and up to 54° C.
  Migration of fipronil into the container: Migration
container: Polystyrene/Butadiene (4%), room temperature and up to 54° C.
  Migration of fipronil into the container: migration
container: Polystyrene, room temperature and up to 54° C.
  Migration of fipronil into the container: No migration
